Measurements: patent US20210196714A1, “COMPOSITIONS AND METHODS FOR TREATING DISORDERS CHARACTERIZED WITH ABERRANT RAS/MAPK SIGNALING” (Duke University, priority 2018, published 2021)
Entries after “also recorded” stand apart in the source; their conditions may differ.

Legend:
[1] = target: ERK2 (Homo sapiens, UniProt P28482); settings: see WO 2002064586; cited from earlier work
[2] = test system: kmt2d+/−×kmt2d+/− progeny; experiment: Neural differentiation (sox2/huc staining) in stable kmt2d mutant; format: in vivo, zebrafish; settings: 100 mM dmDf, 2 dpf
Text: FIG. 12: Treatment with dmDf rescues the defects of stable kmt2d mutant. kmt2d+/− adults were in-crossed and the embryos were then collected at 1 dpf, 2 dpf and 5 dpf to assess dmDf efficacy. […] Error bars show SEM (standard error of the mean).
Although the small molecule testing data in CRISPR F0 mosaic models are consistent with morphant phenotypes (and rescue), experiments recognized the necessity of testing the potential efficacy of dmDf in a stable genetic model that is a better genotypic proxy to human patients. […] In addition to examining proliferation of cells in the brain, experiments assessed whether neural differentiation is affected (see, Van Laarhoven, P. M. et al. Hum Mol Genet 24, 4443-53 (2015)).
(§1) For convergence and extension (CE) phenotyping, embryos were scored as described (see, Leitch, C. C. et al. Nat Genet 40, 443-8 (2008)) at the 8-10 somite stage, and images were captured using an AZ100 microscope and NIS Elements software (Nikon). […] The distance between Meckel's (MK) and ceratohyal (CH) cartilages was measured on ventral bright field images with Image J (NIH). […] Fluorescence signal on embryo heads was imaged with the Nikon AZ100 microscope and DS-Qi1MC digital camera using […] Z-stacks to generate extended depth of focus images. Cell numbers were quantified using the ImageJ ICTN plugin (NIH). […]

[3] = test system: rap1- and kdm6a-depleted zebrafish; experiment: CE defects caused by loss of rap1 and kdm6a; format: in vivo
Method: FIG. 4: Compound 8 ameliorates the CE and jaw defects caused by loss of rap/and kdm6a. (a) gRNA targeting both zebrafish rap1a and rap1b were injected into embryos at the 1-cell stage with Cas9 protein. Larvae were incubated with compound 8 (100 nM) at the 8-cell stage and scored for micrognathia. 5 dpf larvae were stained with Alcian blue to assess the layout of the jaw cartilage. In comparison to control embryos (top), rap1-CRISPR embryos have smaller jaws. […] (b) Quantitative measurement of the distance between MK and CH cartilages. (c) Larvae were scored for CE (n>30 for each concentration). (d) 5 dpf embryos were stained with Alcian blue to assess the layout of jaw cartilage. […] (e) Quantitative measurement of the distance between MK and CH cartilages. *p<0.05; ***p<0.001. […]
as §1

[4] = test system: rap1-CRISPR embryos; experiment: Brain cell proliferation (pHH3 immunostaining) in rap1-mosaic mutants; format: in vivo, zebrafish; settings: 100 nM, 2 dpf, listed as dmDf
Text: Intellectual disability represents a major phenotype in KS, with some studies reporting almost 90% of patients to be affected (see, Wessels, M. W., et al. Clin Dysmorphol 11, 95-102 (2002)). […] Previous studies have shown that defects in proliferation in the developing zebrafish brain can be a proxy for neurodevelopmental and neurocognitive traits, especially in the context of microcephaly (see, Borck, G. et al. Genome Res 25, 609 (2015); Brooks, S. S. et al. Genetics 198, 723-33 (2014); O'Rawe, J. A. et al. Am J Hum Genet 97, 922-32 (2015); Wortmann, S. B. et al. Am J Hum Genet 96, 245-57 (2015)), a phenotype reported commonly in KS (see, Matsumoto, N. & Niikawa, N. Am J Med Genet C Semin Med Genet 117C, 57-65 (2003)).
as §1

Chain of ERK2 (P28482 whole entry, species assumed): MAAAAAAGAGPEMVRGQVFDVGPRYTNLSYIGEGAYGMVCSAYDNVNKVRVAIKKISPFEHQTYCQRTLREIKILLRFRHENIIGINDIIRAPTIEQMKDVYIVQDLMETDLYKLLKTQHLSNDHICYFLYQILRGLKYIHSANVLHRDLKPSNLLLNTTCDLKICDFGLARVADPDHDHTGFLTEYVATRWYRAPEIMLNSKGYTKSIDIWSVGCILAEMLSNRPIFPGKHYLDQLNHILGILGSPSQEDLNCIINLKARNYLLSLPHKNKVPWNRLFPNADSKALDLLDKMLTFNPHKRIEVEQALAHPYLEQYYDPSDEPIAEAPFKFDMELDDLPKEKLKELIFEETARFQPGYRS

For `CC[C@@H](CO)Nc1ncc(C)c(-c2c[nH]c(C(=O)N[C@H](CO)c3cccc(Cl)c3)c2)n1` [Compound 2, N-((S)-1-(3-chlorophenyl)-2-hydroxyethyl)-4-(2-(((S)-1-hydroxybutan-2-yl)amino)-5-methylpyrimidin-4-yl)-1H-pyrrole-2-carboxamide], the ERK2 inhibitor potency [1] is given as “potent”.

With `CC(C)c1nc(-c2cccc(NS(=O)(=O)c3c(F)cccc3F)c2F)c(-c2ccnc(N)n2)s1` [Compound 8, desmethyl-Dabrafenib] the “perturbed differentiation (organization of sox2+ and huc+ cells)” value [2] was “appears to ameliorate; also recorded: attenuated this pathology”, the CE defects [3] was “ameliorates” and the “total number of proliferating (pHH3+) cells in brain” value [4] was “can be rescued; also recorded: restored the total number of proliferating cells to wild type levels”.
